What was measured:
IDH1 R132H = IDH1 R132H (Homo sapiens (Human), UniProt O75874, R132H); test: In vitro NADPH depletion assay for IDH1m R132H inhibitors; format: biochemical; settings: IDH1 R132H enzyme, read-out: IDH R132H IC50
Method: A test compound is prepared as 10 mM stock in DMSO and diluted to 50× final concentration in DMSO, for a 50 μl reaction mixture. IDH enzyme activity converting alpha-ketoglutarate to 2-hydroxyglutaric acid is measured using a NADPH depletion assay. In the assay the remaining cofactor is measured at the end of the reaction with the addition of a catalytic excess of diaphorase and resazurin, to generate a fluorescent signal in proportion to the amount of NADPH remaining. […] The reaction is started with the addition of 10 μl of Substrate Mix ([…], 5 mM alpha-ketoglutarate, in Assay Buffer) and the mixture is incubated for 90 minutes at room temperature.

HT1080 cells = test: Cellular assay, inhibition of 2-HG production in HT1080 cells; format: cell-based; settings: Homo sapiens, HT-1080, 48 h
Method: Cells (HT1080 or U87MG) are grown in T125 flasks in DMEM containing 10% FBS, 1× penicillin/streptomycin and 500 ug/mL G418 (present in U87MG cells only). They are harvested by trypsin and seeded into 96 well white bottom plates at a density of 5000 cell/well in 100 ul/well in DMEM with 10% FBS. […] Cells are incubated overnight at 37° C. in 5% CO2. The next day test compounds are made up at 2× the final concentration and 100 ul are added to each cell well. The final concentration of DMSO is 0.2% and the DMSO control wells are plated in row G. The plates are then placed in the incubator for 48 hours. […] The cell plate is placed back in the incubator for another 24 hours. At 72 hours post compound addition, 10 mL/plate of Promega Cell Titer Glo reagent is thawed and mixed. The cell plate is removed from the incubator and allowed to equilibrate to room temperature. Then 100 ul of Promega Cell Titer Glo reagent is added to each well of media. The cell plate is then placed on an orbital shaker for 10 minutes and then allowed to sit at room temperature for 20 minutes. The plate is then read for luminescence with an integration time of 500 ms.

U87MG cells = test: Cellular assay, inhibition of 2-HG production in U87MG cells; format: cell-based; settings: Homo sapiens, U-87 MG, 48 h
How it was run: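 HT1080 or U87MG cells (U87MG kept with 500 ug/mL G418) seeded at 5000 cells/well and treated with compound at 0.2% final DMSO. Incubated 48 h at 37 °C. 2-HG inhibition determined by LC-MS. Viability read by CellTiter-Glo luminescence at 72 h post-dose.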

IDH1 R132H, sequence (O75874 whole entry R132H): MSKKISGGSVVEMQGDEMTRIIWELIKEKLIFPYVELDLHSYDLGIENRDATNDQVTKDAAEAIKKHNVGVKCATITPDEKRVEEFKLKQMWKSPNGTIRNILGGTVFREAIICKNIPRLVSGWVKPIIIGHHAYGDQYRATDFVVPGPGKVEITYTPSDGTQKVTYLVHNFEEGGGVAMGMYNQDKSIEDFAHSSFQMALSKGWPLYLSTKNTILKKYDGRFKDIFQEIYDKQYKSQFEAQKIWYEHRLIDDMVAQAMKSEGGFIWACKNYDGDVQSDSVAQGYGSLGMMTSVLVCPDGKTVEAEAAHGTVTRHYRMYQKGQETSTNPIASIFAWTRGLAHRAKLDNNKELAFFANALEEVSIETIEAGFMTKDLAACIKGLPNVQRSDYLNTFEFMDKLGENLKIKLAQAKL

Row | IC50 (IDH1 R132H) | IC50 (HT1080 cells) | IC50 (U87MG cells) | Structure (SMILES)
1 | < 100 nM | < 100 nM |  | N#Cc1ccnc(N2C(=O)OCC[C@H]2C(=O)N(c2cncc(F)c2)C(C(=O)NC2CC(F)(F)C2)c2ccccc2)c1 (stereo in doubt) [Compound 301, (S)-3-(4-cyanopyridin-2-yl)-N—((R)-2-((3,3-difluorocyclobutyl)amino)-2-oxo-1-phenylethyl)-N-(5-fluoropyridin-3-yl)-2-oxo-1,3-oxazinane-4-carboxamide]
2 |  | 100 to 500 nM | 500 to 1000 nM | O=C(NC1CC(F)(F)C1)[C@H](c1ccccc1Cl)N(C(=O)[C@@H]1CCC(=O)N1c1nccc2ccccc12)c1cccc(F)c1 [Compound 16]
3 |  | 100 to 500 nM | 100 to 500 nM | O=C(NC1CC(F)(F)C1)[C@H](c1ccccc1Cl)N(C(=O)[C@@H]1COCC(=O)N1c1ncccn1)c1cccc(F)c1 [Compound 45]
4 | < 100 nM | < 100 nM |  | N#Cc1ccnc(N2C(=O)OCC[C@H]2C(=O)N(c2cncc(F)c2)C(C(=O)NC2CC(F)(F)C2)c2ccccc2F)c1 (stereo in doubt) [Compound 302, (S)-3-(4-cyanopyridin-2-yl)-N—((R)-2-(3,3-difluorocyclobutylamino)-1-(2-fluorophenyl)-2-oxoethyl)-N-(5-fluoropyridin-3-yl)-2-oxo-1,3-oxazinane-4-carboxamide]

From US10689414B2 (Agios Pharmaceuticals, Inc., priority 2013, dated 2020)
